Assay results from patent publication US20230103554A1, “TNFa SIGNALING [sequence] TUMOR-PROMOTING INFLAMMATION THAT CAN BE TARGETED TO THERAPY” (Baylor College of Medicine, priority 2020, published 2023).

Experiments:
[1] = system: NF-κB signaling in NB cells; experiment: Intracellular IκBα in NB population of co-culture (PhosFlow flow cytometry); format: cell-based, human
Procedure: Monocytes were directly cultured with wild-type or TNF, TNFR1, TNFR2 KO NB cell lines in ULA plates for 24 hours. Activation of NF-kB in monocytes and NB was measured by flow cytometry and cytokine production measured by ELISA from co-culture supernatant. To evaluate the contact-dependence of monocyte activation by NB, monocytes were cultured in ULA plates with seven-day NB conditioned medium mixed 1:1 with complete monocyte medium for 24 hours and analyzed for IL-6 production. To assess the growth advantage of NB cultured with monocytes, NB-luc cell lines and monocytes were seeded in tissue culture-treated white 96-well plates (1:1 ratio) and cultured for four days. Luminescence was measured using a TECAN Spark plate reader (TECAN). To evaluate changes in proliferation, NB was pulsed for 10 minutes in CellTrace Violet (2 μM, Invitrogen) and seeded at 100,000 cells per well in a 12-well tissue culture-treated plate. Monocytes were added directly to the NB monolayer at a density of 100,000 per well and incubated for four days. CellTrace Violet expression was analyzed by flow cytometry.
To evaluate the expression of TNFα in NB and monocytes, cells were first stimulated with LPS (50 ng/mL) in the presence of GolgiStop (BD Biosciences) and fixed using CytoFix/Cytoperm buffer (BD Biosciences). Cells were then stained with TNFα-PE (BD Biosciences). To evaluate the expression of TNFR1 and TNFR2 on NB and monocytes, cells were stained with TNFR1-BV421 and TNFR2-APC (BD Biosciences) in FACS staining buffer containing 0.05% sodium azide to prevent receptor/antibody processing. To estimate changes in NF-kB expression, treated co-cultures were first stained with ZombieViolet (1 μL/test, Biolegend) to counterstain dead cells and APC-H7 CD45 and/or FITC-CD14 to label monocytes for 20 minutes at room temperature. […] All flow samples were run using an LSRII 5-laser flow cytometer (Texas Children's Hospital Cancer Center Flow Cytometry Core, Houston, Tex.) and analyzed using FlowJo Software (Treestar).

[2] = system: CHLA-255 monolayer and monocytes; experiment: Adherence of CD14+ monocytes to NB monolayer; format: cell-based, human; conditions: CHLA-255, 10 μg/mL etanercept, four days
Procedure: Cultures were imaged at 10× magnification using Nikon DS-Fi1/Elements Software. Scale bar 50 μm. (FIG. 26B) CHLA-255 was grown to 25% confluence in 12-well tissue culture plates and overlaid with freshly isolated human monocytes. […] Non-adherent cells were gently washed with PBS before mechanical dissociation to release adherent cells. Adherent CD14+ monocytes were quantified relative to NB from samples run in triplicate. **** p<0.0001;

[3] = system: SK-N-AS-luc/monocyte xenografts; experiment: SK-N-AS-luc/monocyte subcutaneous xenograft in NSG mice; format: in vivo, mouse
Procedure: Luciferase-labeled NB and freshly isolated human monocytes were embedded in Matrigel and injected into the subcutaneous right flank of 8-week female NSG mice. […] (FIG. 9A) Tumor growth was tracked indirectly through luminescence imaging using IVIS Imaging system. (FIG. 9B) Average tumor luminescence of each group over time. After 3 weeks, mice were sacrificed and the tumor size was analyzed directly by weight. The bottom line is NB+Mono+FcTNFR and the top line is NB+Mono+IgG. (FIG. 9C) Representative image of 5 tumors from each group. (FIG. 9D) Tumor weight by group after Log10 transformation of weight (in mg). * p<0.05, ** p<0.01;
(FIG. 27A) SK-N-AS-luc and freshly isolated human monocytes were embedded in matrigel and injected into the subcutaneous right flank of eight-week female NSG mice. […] Representative luminescence images (Ctrl n=7, Etan n=13) measured in radiance (photons/second/cm2/steradian). (FIG. 27B) Graphical representation of total luminescence per tumor from (A) over time. (FIG. 27C) Mean tumor total luminescence over time, two-way ANOVA with Bonferroni multiple comparisons test (Ctrl n=7, Etan n=13); NB/Mon+Ctrl line is on top. (FIG. 27D) Representative tumors for each group following sacrifice at day 21. * p<0.05; […]

## etanercept
[1]; CHLA-255 + monocytes, 10 μg/mL etanercept, 24 hours (FIG. 15D)
  reversal of IκBα degradation in NB: partial
[1]; SK-N-AS + monocytes, etanercept, 24 hours
  IκBα levels in NB cells: restored IκBα levels to the levels found in NB cells cultured alone
[2]
  adherence of CD14+ monocytes to NB monolayer: decreased the adherence
[3]; 5 mg/kg (100 μg) i.p. bi-weekly, vs IgG control
  reduction of tumor growth (luminescence): 30%
[3]; SK-N-AS + monocytes in Matrigel, 100 μg bi-weekly, vs IgG control (FIG. 9)
  growth of tumors: significantly decreased the growth of tumors
